Data published in patent US8932597B2 (priority 2008, dated 2015).

Assays:
HuM2e antibody 23K12 = assay type: binding, human
[1] = system: anti-M2 human monoclonal antibody Z3G1; assay type: binding

Substance | Signal (peptides that bind to Z3G1) [1] | further results
578 (SLLTERETPIRNEWGCRCNDSSD; epitope peptide) [compound 578] |  | Signal (peptides that bind to 23K21 and 8I10) (HuM2e antibody 23K12): 859
458 (CSLLTECGSCLTEV; epitope peptide) [compound 458] |  | Signal (peptides that bind to 23K21 and 8I10) (HuM2e antibody 23K12): 1278
1281 (MSLLEEVETPIRNEWGCRCN; epitope peptide) [compound 1281] | 2805 | 
1564 (ELLTEVETPIRNEWGCRCNDSSD; epitope peptide) [compound 1564] |  | Signal (peptides that show specific binding to Z3G1) [1]: 2201
1258 (MLLLTEVETPIRNEWGCRCN; epitope peptide) [compound 1258] | 2091 | 
634 (SLLTEVETPIRNEWGCRANDSSD; epitope peptide) [compound 634] |  | Signal (peptides that show specific binding to Z3G1) [1]: 2265
439 (SLLTEVETPIRNE; epitope peptide) [compound 439] | 1819 | 
1339 (MCLLTEVGMSLLCEV; epitope peptide) [compound 1339] | 2234 | 
1496 (CEVETPIRNELLTEVETPICVETPIRNEW; epitope peptide; MISC_FEATURE (1)..(1): C is an attachment site for a CLIP; MISC_FEATURE (10)..(10): E is an attachment site for a CLIP; MISC_FEATURE (11)..(11): L is an attachment site for a CLIP; MISC_FEATURE (29)..(29): W is an attachment site for a CLIP) [compound 1496] | 1625 | 
1295 (MSLLWEVETPIRNEWGCRCN; epitope peptide) [compound 1295] | 2531 | 
1255 (MHLLTEVETPIRNEWGCRCN; epitope peptide) [compound 1255] | 2449 | 
1286 (MSLLKEVETPIRNEWGCRCN; epitope peptide) [compound 1286] | 2825 | 
1497 (CVETPIRNEWLLTEVETPICVETPIRNEW; epitope peptide; MISC_FEATURE (1)..(1): C is an attachment site for a CLIP; MISC_FEATURE (10)..(10): W is an attachment site for a CLIP; MISC_FEATURE (11)..(11): L is an attachment site for a CLIP; MISC_FEATURE (29)..(29): W is an attachment site for a CLIP) [compound 1497] | 1817 | 
1346 (MCLLTEVGMSLLTCV; epitope peptide) [compound 1346] | 1098 | 
1311 (MSLLTEVYTPIRNEWGCRCN; epitope peptide) [compound 1311] | 2181 | 
1498 (CETPIRNEWGLLTEVETPICVETPIRNEW; epitope peptide; MISC_FEATURE (1)..(1): C is an attachment site for a CLIP; MISC_FEATURE (10)..(10): G is an attachment site for a CLIP; MISC_FEATURE (11)..(11): L is an attachment site for a CLIP; MISC_FEATURE (29)..(29): W is an attachment site for a CLIP) [compound 1498] | 1817 | 
1583 (SLLHEVETPIRNEWGCRCNDSSD; epitope peptide) [compound 1583] |  | Signal (peptides that show specific binding to Z3G1) [1]: 2462
1581 (SLLFEVETPIRNEWGCRCNDSSD; epitope peptide) [compound 1581] |  | Signal (peptides that show specific binding to Z3G1) [1]: 2137
1321 (MCLLTEVETCIRNE; epitope peptide) [compound 1321] | 1948 | 
1351 (MSLLCEVGMSCLCEC; epitope peptide) [compound 1351] | 2492 | 

Substance | Signal (peptides that bind to Z3G1) [1] | further results
1349 (MSLLCEVGCSCLCEV; epitope peptide) [compound 1349] | 2586 | 
1343 (CSCLCEVGMSLLCEV; epitope peptide) [compound 1343] | 1945 | 
1250 (MALLTEVETPIRNEWGCRCN; epitope peptide) [compound 1250] | 2604 | 
1340 (MSCLTEVGMSLLCEV; epitope peptide) [compound 1340] | 2341 | 
CSLLTEVGSLLTEV (epitope peptide) [SEQ ID NO: 283] |  | Binding to Z3G1 (in words) [1]: recognized
1461 (CVETPIRNEWLLTEVETPICTEVETPIRN; epitope peptide; MISC_FEATURE (1)..(1): C is an attachment site for a CLIP; MISC_FEATURE (10)..(10): W is an attachment site for a CLIP; MISC_FEATURE (11)..(11): L is an attachment site for a CLIP; MISC_FEATURE (29)..(29): N is an attachment site for a CLIP) [compound 1461] | 1835 | 
1324 (MCLLCEVETPIRNE; epitope peptide) [compound 1324] | 2038 | 
1326 (MSLLCEVETPIRCE; epitope peptide) [compound 1326] | 2772 | 
1274 (MSLNTEVETPIRNEWGCRCN; epitope peptide) [compound 1274] | 2787 | 
1283 (MSLLGEVETPIRNEWGCRCN; epitope peptide) [compound 1283] | 2717 | 
1393 (SLLCEVETCIRNEWG; epitope peptide) [compound 1393] | 2531 | 
1591 (SLLYEVETPIRNEWGCRCNDSSD; epitope peptide) [compound 1591] |  | Signal (peptides that show specific binding to Z3G1) [1]: 2181
1576 (YLLTEVETPIRNEWGCRCNDSSD; epitope peptide) [compound 1576] |  | Signal (peptides that show specific binding to Z3G1) [1]: 1882
1511 (CLTEVETPIRLLTEVETPICETPIRNEWG; epitope peptide; MISC_FEATURE (1)..(1): C is an attachment site for a CLIP; MISC_FEATURE (10)..(10): R is an attachment site for a CLIP; MISC_FEATURE (11)..(11): L is an attachment site for a CLIP; MISC_FEATURE (29)..(29): G is an attachment site for a CLIP) [compound 1511] |  | Signal (peptides that show specific binding to Z3G1) [1]: 2175
1278 (MSLYTEVETPIRNEWGCRCN; epitope peptide) [compound 1278] | 1313 | 
1478 (CLTEVETPIRLLTEVETPICEVETPIRNE; epitope peptide; MISC_FEATURE (1)..(1): C is an attachment site for a CLIP; MISC_FEATURE (10)..(10): R is an attachment site for a CLIP; MISC_FEATURE (11)..(11): L is an attachment site for a CLIP; MISC_FEATURE (29)..(29): E is an attachment site for a CLIP) [compound 1478] | 1681 | 
1292 (MSLLREVETPIRNEWGCRCN; epitope peptide) [compound 1292] | 2699 | 
1342 (MSLLTCVGMSLLCEV; epitope peptide) [compound 1342] | 2712 | 
1369 (SLLTEVETPCRCE; epitope peptide) [compound 1369] | 1546 | 
1443 (CTEVETPIRNLLTEVETPICLTEVETPIR; epitope peptide; MISC_FEATURE (1)..(1): C is an attachment site for a CLIP; MISC_FEATURE (10)..(10): N is an attachment site for a CLIP; MISC_FEATURE (11)..(11): L is an attachment site for a CLIP; MISC_FEATURE (29)..(29): R is an attachment site for a CLIP) [compound 1443] | 2213 | 

Substance | Signal (peptides that bind to Z3G1) [1] | further results
1392 (SLLCEVETPCRNEWG; epitope peptide) [compound 1392] | 2465 | 
1582 (SLLGEVETPIRNEWGCRCNDSSD; epitope peptide) [compound 1582] |  | Signal (peptides that show specific binding to Z3G1) [1]: 2301
1301 (MSLLTEVFTPIRNEWGCRCN; epitope peptide) [compound 1301] | 1858 | 
1395 (SLLCEVCTPIRNEWG; epitope peptide) [compound 1395] | 2384 | 
1263 (MRLLTEVETPIRNEWGCRCN; epitope peptide) [compound 1263] | 2519 | 
1280 (MSLLDEVETPIRNEWGCRCN; epitope peptide) [compound 1280] | 2763 | 
1323 (MCLLTEVCTPIRNE; epitope peptide) [compound 1323] | 1407 | 
1256 (MILLTEVETPIRNEWGCRCN; epitope peptide) [compound 1256] | 1634 | 
1560 (SLLCEVGCSCLCEV; epitope peptide) [compound 1560] |  | Signal (peptides that show specific binding to Z3G1) [1]: 2112
1328 (MSLLCEVETPCRNE; epitope peptide) [compound 1328] | 2652 | 
1289 (MSLLNEVETPIRNEWGCRCN; epitope peptide) [compound 1289] | 2824 | 
1325 (MSLLCEVETPIRNC; epitope peptide) [compound 1325] | 2823 | 
1362 (SLLCEVETPIRCE; epitope peptide) [compound 1362] | 2307 | 
1290 (MSLLPEVETPIRNEWGCRCN; epitope peptide) [compound 1290] | 2728 | 
1568 (ILLTEVETPIRNEWGCRCNDSSD; epitope peptide) [compound 1568] |  | Signal (peptides that show specific binding to Z3G1) [1]: 1044
1307 (MSLLTEVNTPIRNEWGCRCN; epitope peptide) [compound 1307] | 2807 | 
1589 (SLLVEVETPIRNEWGCRCNDSSD; epitope peptide) [compound 1589] |  | Signal (peptides that show specific binding to Z3G1) [1]: 1932
1345 (MSCLCECGMSLLCEV; epitope peptide) [compound 1345] | 1307 | 
